Laboratory results reported in patent US9765087B2, “Benzimidazole derivatives” (ENANTA PHARMACEUTICALS, INC., priority 2009, dated 2017).
Where two headings read alike, the source gives them in different places.

Tested on: HCV 1a genotype replicon
Assay: HCV replicon assay (qRT-PCR or luciferase), genotype 1a
Format: cell-based
Settings: Hepatitis C virus
Experimental: HCV replicon cell lines (kindly provided by R. Bartenschlager) isolated from colonies as described by Lohman et. al. (Lohman et al. (1999) Science 285: 110-113, expressly incorporated by reference in its entirety) and used for all experiments. The HCV replicon has the nucleic acid sequence set forth in EMBL Accession No.: AJ242651, the coding sequence of which is from nucleotides 1801 to 8406.
These cell lines were maintained at 37° C., 5% CO2, 100% relative humidity in DMEM (Cat#11965-084, Invitrogen), with 10% fetal calf serum (“FCS”, Invitrogen), 1% non-essential amino acids (Invitrogen), 1% of Glutamax (Invitrogen), 1% of 100× penicillin/streptomycin (Cat#15140-122, Invitrogen) and Geneticin (Cat#10131-027, Invitrogen) at 0.75 mg/ml or 0.5 mg/ml for 11-7 and Huh-luc/neo-ET cells, respectively.
EC50 values of single agent compounds and combinations were determined by HCV RNA detection using quantitative RT-PCR, according to the manufacturer's instructions, with a TAQMAN® One-Step RT-PCR Master Mix Reagents Kit (Cat#AB 4309169, Applied Biosystems) on an ABI Model 7500 thermocycler. The TaqMan primers used for detecting and quantifying HCV RNA were obtained from Integrated DNA Technologies. HCV RNA was normalized to GAPDH RNA levels in drug-treated cells, which is detected and quantified using the Human GAPDH Endogenous Control Mix (Applied Biosystems, AB 4310884E). Total cellular RNA is purified from 96-well plates using the RNAqueous 96 kit (Ambion, Cat# AM1812). Chemical agent cytotoxicity is evaluated using an MTS assay according to the manufacturer's directions (Promega).
Since clinical drug resistance often develops in viral infections following single agent therapies, there is a need to assess the additive, antagonistic, or synergistic properties of combination therapies. We used the HCV replicon system to assess the potential use of the compound of the present invention or in combination therapies with Interferon alpha, cyclosporine analogs and inhibitors targeting other HCV proteins. The acute effects of a single or combinations of drugs are studied in the “Huh-luc/neo-ET” replicon with each chemical agent titrated in an X or Y direction in a 6 point two-fold dilution curve centered around the EC50 of each drug. Briefly, replicon cells are seeded at 7,000 cells per well in 90 ul DMEM (without phenol red, Invitrogen Cat.#31053-036) per well with 10% FCS, 1% non-essential amino acids, 1% of Glutamax and 1% of 100× penicillin/streptomycin and incubated overnight at 37° C., 5% CO2, 100% relative humidity. 16-20 h after seeding cells, test compounds previously solubilized and titrated in dimethyl sulfoxide (“DMSO”) from each X plate and Y plate are diluted 1:100 in DMEM (without phenol red, Invitrogen Cat.#31053-036) with 10% FCS, 1% non-essential amino acids, 1% of Glutamax and 1% of 100× penicillin/streptomycin and added directly to the 96-well plate containing cells and growth medium at a 1:10 dilution for a final dilution of compound and DMSO of 1:1000 ([…] final concentration). Drug treated cells are incubated at 37° C., 5% CO2, 100% relative humidity for 72 hours before performing a luciferase assay using 100 ul per well BriteLite Plus (Perkin Elmer) according to the manufacturer's instructions. Data analysis utilizes the method published by Prichard and Shipman (Antiviral Research, 1990. 14:181-205). Using this method, the combination data are analyzed for antagonistic, additive, or synergistic combination effects across the entire combination surface created by the diluted compounds in combination.
The compounds of the present invention can be effective against the HCV 1b genotype. It should also be understood that the compounds of the present invention can inhibit multiple genotypes of HCV. In one embodiment compound of the present invention are active against the 1a, 1b, 2a, 2b, 3a, 4a, and 5a genotypes. […] EC50 ranges against HCV 1b and 1a are as follows: A>10 nM; B1-10 nM; C<1 nM.

[1] = Table 12, range class, read-out: 1a EC50 Range
[2] = Table 12, numeric values, read-out: 1a EC50

Compound	EC50 [1] [nM]	EC50 [2] [nM]
COCC(COC)[C@H](NC(=O)OC)C(=O)N1CC2(CC2)C[C@H]1c1nc2ccc(C#Cc3ccc(-c4cnc([C@@H]5CC6(CC6)CN5C(=O)[C@@H](NC(=O)OC)C(C)C)[nH]4)cc3)cc2[nH]1 [Example 670]	< 1	–
COC(=O)N[C@H](C(=O)N1CC2(CC2)C[C@H]1c1nc2ccc(C#Cc3ccc(-c4cnc([C@@H]5CCCN5C(=O)[C@H](NC(=O)OC)c5cc(F)cc(F)c5)[nH]4)cc3)cc2[nH]1)C(C)C (stereo in doubt) [Example 678]	< 1	–
COC(=O)N[C@H](C(=O)N1CC2(CC2)C[C@H]1c1nc2ccc(C#Cc3ccc(-c4cnc([C@@H]5C[C@H]6C[C@H]6N5C(=O)[C@H](NC(=O)OC)c5cc(F)cc(F)c5)[nH]4)cc3)cc2[nH]1)C(C)C [Example 683]	< 1	–
COC(=O)N[C@H](C(=O)N1CC2(CC2)C[C@H]1c1ncc(-c2ccc(C#Cc3ccc4nc([C@@H]5CC6(CC6)CN5C(=O)[C@H](NC(=O)OC(C)(C)C)[C@H](C)c5ccccc5)[nH]c4c3)cc2)[nH]1)C(C)C [Example 669]	> 10	–
COC(=O)N[C@H](C(=O)N1CC2(CC2)C[C@H]1c1ncc(-c2ccc(C#Cc3ccc4nc([C@@H]5CC6(CC6)CN5C(=O)[C@H](NC(=O)OC)c5cccc(F)c5)[nH]c4c3)cc2)[nH]1)C(C)C [Example 653]	< 1	–
COC(=O)N[C@H](C(=O)N1CC2(CC2)C[C@H]1c1nc2ccc(C#Cc3ccc(-c4cnc([C@@H]5CCCN5C(=O)[C@H](NC(=O)OC)c5ccc(F)cc5)[nH]4)cc3)cc2[nH]1)C(C)C [Example 664]	< 1	–
CC[C@H](NC(=O)OC)C(=O)N1CC2(CC2)C[C@H]1c1ncc(-c2ccc(C#Cc3ccc4nc([C@@H]5CC6(CC6)CN5C(=O)[C@H](CC)NC(=O)OC)[nH]c4c3)cc2)[nH]1 [Example 655]	–	0.034
COC(=O)N[C@H](C(=O)N1CC2(CC2)C[C@H]1c1nc2ccc(C#Cc3ccc(-c4cnc([C@@H]5CCCN5C(=O)[C@@H](NC(=O)OC)[C@@H](C)OC)[nH]4)cc3)cc2[nH]1)C(C)C [Example 598]	< 1	–
COC(=O)N[C@H](C(=O)N1CC2(CC2)C[C@H]1c1nc(-c2ccc(C#Cc3ccc4[nH]c([C@@H]5CC6(CC6)CN5C(=O)[C@@H](NC(=O)OC)C(C)C)nc4c3)cc2)c(Br)[nH]1)C(C)C [Example 657]	< 1	–
COC(=O)N[C@H](C(=O)N1CC2(CC2)C[C@H]1c1ncc(-c2ccc(C#Cc3ccc4nc([C@@H]5CC6(CC6)CN5C(=O)[C@@H](NC(=O)OC)C5CCOCC5)[nH]c4c3)cc2)[nH]1)C(C)C [Example 590]	–	0.017
CC[C@@H](C)[C@H](NC(=O)OC)C(=O)N1CC2(CC2)C[C@H]1c1ncc(-c2ccc(C#Cc3ccc4nc([C@@H]5CC6(CC6)CN5C(=O)[C@@H](NC(=O)OC)C(C)C)[nH]c4c3)cc2)[nH]1 [Example 606]	< 1	–
COC(=O)N[C@@H](CCCCNC(N)=O)C(=O)N1CCC[C@H]1c1nc(-c2ccc(C#Cc3ccc4[nH]c([C@@H]5CC6(CC6)CN5C(=O)[C@@H](NC(=O)OC)C(C)C)nc4c3)cc2)c[nH]1 [Example 620]	< 1	–
CC[C@@H](C)[C@H](NC(=O)OC)C(=O)N1CC2(CC2)C[C@H]1c1nc2ccc(C#Cc3ccc(-c4cnc([C@@H]5CC6(CC6)CN5C(=O)[C@@H](NC(=O)OC)C(C)C)[nH]4)cc3)cc2[nH]1 [Example 656]	< 1	–
COC(=O)N[C@H](C(=O)N1C[C@@H](CF)C[C@H]1c1ncc(-c2ccc(C#Cc3ccc4nc([C@@H]5C[C@@]6(CCCO6)CN5C(=O)[C@@H](NC(=O)OC)C(C)C)[nH]c4c3)cc2)[nH]1)C(C)C [Example 566]	< 1	–
COC(=O)N[C@H](C(=O)N1CC2(CC2)C[C@H]1c1ncc(-c2ccc(C#Cc3ccc4nc([C@@H]5CC6(CC6)CN5C(=O)[C@H](NC(=O)OC)c5cccc(OC)c5)[nH]c4c3)cc2)[nH]1)C(C)C [Example 654]	–	0.185
COC(=O)N[C@H](C(=O)N1CC2(CC2)C[C@H]1c1ncc(-c2ccc(C#Cc3ccc4nc([C@@H]5CC6(CC6)CN5C(=O)[C@H](NC(=O)OC)C5CCCCC5)[nH]c4c3)cc2)[nH]1)C(C)C [Example 667]	1 to 10	–
